Assay results reported in patent publication US20160170302A1, “NOVEL COMPOUND” (TOKYO OHKA KOGYO CO., LTD., priority 2011, published 2016).

Assay: Solubility to organic solvents PM and AN
Conditions: for Solubility to Solvent AN: solvent: cyclohexanone (AN); for Solubility to Solvent PM: solvent: propylene glycol monomethyl ether acetate (PM)

Solubility to Solvent AN	Solubility to Solvent PM	Compound
>50 mass %	>50 mass %	COc1ccc(/C=C/C(=O)n2ccnc2)cc1[N+](=O)[O-] [Compound 6]
>50 mass %	>50 mass %	CCN(CC)C(=O)/C(C)=C/c1ccc(OC)cc1[N+](=O)[O-] [Compound 11]
>50 mass %	>50 mass %	CCN(CC)C(=O)/C(C)=C/c1ccc(OC)c([N+](=O)[O-])c1 [Compound 12]
>50 mass %	>50 mass %	COc1ccc(/C=C/C(=O)N2CCCCC2)c([N+](=O)[O-])c1 [Compound 13]
>50 mass %	>50 mass %	COc1ccc(/C=C/C(=O)N2CCCCC2)cc1[N+](=O)[O-] [Compound 14]
>50 mass %	>50 mass %	COc1ccc(/C=C(\C)C(=O)N2CCCCC2)c([N+](=O)[O-])c1 [Compound 15]
>50 mass %	>50 mass %	COc1ccc(/C=C(\C)C(=O)N2CCCCC2)cc1[N+](=O)[O-] [Compound 16]
>50 mass %	>50 mass %	COc1ccc(/C=C(\C)C(=O)n2ccnc2)cc1 [Compound 18]
>50 mass %	>50 mass %	CCN(CC)C(=O)/C(C)=C/c1ccc(OC)cc1 [Compound 19]
>50 mass %	>50 mass %	COc1ccc(/C=C(\C)C(=O)Nc2ccccc2)cc1 [Compound 20]

Further lines, the molecule ahead of its results:

Compound	Solubility to Solvent AN	Solubility to Solvent PM
CCO[Si](C)(CCCN)OCC [Comparative Compound 6, reference compound]	>50 mass %	>50 mass %
CCN(CC)C(=O)/C=C/c1ccc(OC)cc1 [Compound 1]	>50 mass %	>50 mass %
COc1ccc(/C=C/C(=O)Nc2ccccc2)cc1 [Compound 2]	>50 mass %	>50 mass %
COc1ccc(/C=C/C(=O)n2ccnc2)cc1 [Compound 3]	>50 mass %	>50 mass %
CCN(CC)C(=O)/C=C/c1ccc(OC)cc1[N+](=O)[O-] [Compound 9]	>50 mass %	>50 mass %
CCN(CC)C(=O)/C=C/c1ccc(OC)c([N+](=O)[O-])c1 [Compound 10]	>50 mass %	>50 mass %
COc1ccc(/C=C/C(=O)N2CCCCC2)cc1 [Compound 17]	>50 mass %	>50 mass %
